Series [1] deals with HFF (human foreskin fibroblast) cells. Kind of series: Cytotoxicity in human primary cell cultures (Trypan Blue Staining). The conditions noted are these: HFF cells, 48 hours, Trypan Blue Staining. The format is cell-based. On the procedure:
(1) HFF (human foreskin fibroblast) cells (2×105) were seeded with 2 ml of DMEM medium supplemented with 10% FBS in each well of two 12-well tissue culture plates. (2) Cells were cultured for 3 days. CSA-44 was added to test for cell toxicity. Eleven concentrations were tested: 40 μg/ml, 30 μg/ml, […], 17.5 μg/ml, 15 μg/ml, 12.5 μg/ml, 10 μg/ml, 7.5 μg/ml, 5 μg/ml, 2.5 μg/ml, and 1 μg/ml. Samples with concentration of 0 μg/ml were used as the control. Each concentration was tested in duplicates with two wells. (3) Cells were cultured for 48 hours with CSA-44. Trypan Blue Staining was used to determine the numbers of living and dead cells on a hemocytometer. Percentages of living and dead cells in each sample were calculated.
(1) HFF cells (2×105) were seeded with 2 ml of DMEM medium supplemented with 10% FBS in each well of two 12-well tissue culture plates. (2) Cells were cultured for 3 days. CMA Conjugate was added to test for cell toxicity. Eleven concentrations were tested. They were 100 μg/ml, 80 μg/ml, 60 μg/ml, 50 μg/ml, 40 μg/ml, 30 μg/ml, 25 μg/ml, 20 μg/ml, 15 μg/ml, 10 μg/ml, and 5 μg/ml. Samples with concentration of 0 μg/ml were used as the control. Each concentration was tested in duplicates with two wells. (3) Cells were cultured for 48 hours with CMA Conjugate. […] Percentages of living and dead cells in each sample were calculated.

For a further series, the system named is human coronavirus 229E. Kind of series: Therapeutic activity against human coronavirus 229E in HFF cells. The format is cell-based. The conditions noted are these: added 24 hours post infection, cell viability. On the procedure:
(1) HFF cells (5×104) were seeded with 1 ml of DMEM media supplemented with 10% FBS in each well of four 24-well tissue culture plates. (2) Cell were cultured for 3 days until HFF cells in each well attained 90% confluency (media was changed 1 day before infection). 10 μl of the 10-time diluted original solution of coronavirus, about 1×10^5 PFU were added into each well. Infection was allowed to proceed overnight. (3) The media was changed 24 hours post infection. CSA-44 was added to test their anti-viral effects. Ten different concentrations of the drug were tested. They were 15 μg/ml, 10 μg/ml, 9 μg/ml, 8 μg/ml, 7 μg/ml, 6 μg/ml, 5 μg/ml, 4 μg/ml, 3 μg/ml, and 2 μg/ml with 0 μg/ml as the control. Each concentration has 12 wells for test. Cells were cultured for two weeks, and cell viability was quantified. CSA-44 was effective in inhibiting viral replication and growth. The values of EC50 (where EC is the concentration of the active that gives 50% of the maximal response) of CSA-44 is identified as 4 μg/ml.
(1) HFF cells (5×104) were seeded with 1 ml of DMEM media supplemented with 10% FBS in each well of four 24-well tissue culture plates. (2) Cells were cultured for 3 days until HFF cells in each well attained 90% confluency (media was changed 1 day before infection). Ten μl of the 10-time diluted original solution of coronavirus, about 1×10^5 PFU, were added into each well. Infection was allowed to proceed overnight. (3) The media was changed 24 hours post infection. Different concentrations of CSA-44 were added to test their anti-viral effects. Each concentration has 12 wells for test. Cells were cultured in the presence of CSA-44 for […] and cell viability was quantified.
(1) HFF cells (5×104) were seeded with 1 ml of DMEM media supplemented with 10% FBS in each well of four 24-well tissue culture plates. (2) Cells were cultured for 3 days until HFF cells in each well attained 90% confluency (media was changed 1 day before infection). […] Cells were cultured for two weeks, and cell viability was quantified. […]

SMILES strings stand for the structures. In brackets after ≈: the same amount, converted by molar mass.

Usually EC50 stands for the concentration that produces a half-maximal response. In the case of `CCCCCCCCOC(=O)CC[C@@H](C)[C@H]1CC[C@H]2[C@@H]3[C@H](OC(=O)CCN)C[C@@H]4C[C@H](OC(=O)CCN)CC[C@]4(C)[C@H]3C[C@H](OC(=O)CCN)[C@]12C` [CSA-44], the CC50 result in series [1] was “around 15 μg/ml”. Besides, the EC50 with human coronavirus 229E (cells cultured for three weeks) is ~4 µg/mL (≈ 5.45 µM); with human coronavirus 229E (cells cultured for two weeks) it was 4 µg/mL (≈ 5.45 µM).

The values above are taken from patent US20240335547A1, “MODIFIED CHOLIC ACID CONJUGATES” (priority 2022, published 2024).
